Where two headings read alike, the source gives them in different places.
Assays:
[1] = Particle size distribution by Malvern laser diffraction (Mastersizer S); format: physicochemical; conditions: for D(0.9), PSD by Malvern / d(0.1), PSD by Malvern / d(0.5), PSD by Malvern: Modified Pilot Scale, 2.5 kg batch
Experimental: The particle size distributions were measured by Malvern Laser Diffraction, using the Mastersizer S model. Laser diffraction relies on the fact that diffraction angle of light is inversely proportional to particle size. Properties of particles are measured and interpreted as measurements of a sphere (a sphere being the only shape that can be described by one unique number). In addition, laser diffraction calculates a particle size distribution based around volume terms, thus eliminating particle count from the determination of particle size. The Mastersizer S model measures particles using a single technique and a single range setting.
D(0.1) is the particle size, in microns, below which 10% by volume distribution of the population is found. D(0.5) is the particle size, in microns, below which 50% by volume distribution of the population is found. D(0.9) is the particle size, in microns, below which 90% by volume distribution of the population is found.

[2] = prior art U.S. Pat. No. 7,884,208; cited from earlier work
[3] = system: acute experimental autoimmune encephalomyelitis (aEAE) model; conditions: U.S. Pat. No. 6,077,851; cited from earlier work
[4] = prior art U.S. Pat. No. 7,884,208, cited from earlier work
[5] = starting material of pilot scale process
[6] = Production scale crystallization
[7] = Laboratory scale crystallization, 25 g crude

SMILES: CCN(C(=O)c1c([O-])c2c(Cl)cccc2n(C)c1=O)c1ccccc1.[Na+] [Pilot Scale Batch B]
- D(0.9), PSD by Malvern [1]: 33.9 um
- d(0.1), PSD by Malvern [1]: 4.1 um
- d(0.5), PSD by Malvern [1]: 13.5 um

SMILES: CCN(C(=O)c1c([O-])c2c(Cl)cccc2n(C)c1=O)c1ccccc1.[Na+] [crude laquinimod sodium]
- d(0.1) [1, 5]: 1-2 μ
- d(0.5) [1, 5]: 5-11 μ
- d(0.9) [1, 5]: 20-35 μ

SMILES: CCN(C(=O)c1c([O-])c2c(Cl)cccc2n(C)c1=O)c1ccccc1.[Na+] [Batch C]
- PSD D(0.1) [1, 6]: 4.1 μm
- PSD D(0.5) [1, 6]: 14.0 μm
- PSD D(0.9) [1, 6]: 32.0 μm

SMILES: CCN(C(=O)c1c([O-])c2c(Cl)cccc2n(C)c1=O)c1ccccc1.[Na+] [Example 13 of U.S. Pat. No. 7,884,208]
- Tapped Density (in words) [2]: high

SMILES: CCN(C(=O)c1c(O)c2c(Cl)cccc2n(C)c1=O)c1ccccc1 [Laquinimod, N-ethyl-N-phenyl-1,2,-dihydro-4-hydroxy-5-chloro-1-methyl-2-oxoquinoline-3-carboxamide]
- effectiveness in aEAE model [3]: effective

SMILES: CCN(C(=O)c1c([O-])c2c(Cl)cccc2n(C)c1=O)c1ccccc1.[Na+] [Laboratory Scale Batch B]
- PSD D(0.1) [1, 7]: 2.6 μm

SMILES: CCN(C(=O)c1c([O-])c2c(Cl)cccc2n(C)c1=O)c1ccccc1.[Na+] [Batch E]
- PSD D(0.1) [1, 6]: 2.5 μm
- PSD D(0.5) [1, 6]: 9.5 μm
- PSD D(0.9) [1, 6]: 21.0 μm

SMILES: CCN(C(=O)c1c([O-])c2c(Cl)cccc2n(C)c1=O)c1ccccc1.[Na+] [Example 14 of U.S. Pat. No. 7,884,208]
- size of 10% or more of the total amount by volume of the particles [4]: less than 5 microns
- Tapped Density (in words) [2]: undesired

SMILES: CCN(C(=O)c1c([O-])c2c(Cl)cccc2n(C)c1=O)c1ccccc1.[Na+] [Laboratory Scale Batch A]
- PSD D(0.1) [1, 7]: 2.3 μm

SMILES: CCN(C(=O)c1c([O-])c2c(Cl)cccc2n(C)c1=O)c1ccccc1.[Na+] [Pilot Scale Batch A]
- D(0.9), PSD by Malvern [1]: 33.8 um
- d(0.1), PSD by Malvern [1]: 3.3 um
- d(0.5), PSD by Malvern [1]: 12.9 um

SMILES: CCN(C(=O)c1c([O-])c2c(Cl)cccc2n(C)c1=O)c1ccccc1.[Na+] [Example 15 from U.S. Pat. No. 7,884,208]
- D(0.9), PSD by Malvern ([4]; Laboratory Scale 25 g batch): 51.8 um
- d(0.1), PSD by Malvern ([4]; Laboratory Scale 25 g batch): 6.1 um
- d(0.5), PSD by Malvern ([4]; Laboratory Scale 25 g batch): 21.2 um

— patent US9233927B2 (TEVA PHARMACEUTICAL INDUSTRIES, LTD., priority 2013, dated 2016)
